Assay results published in publication PMC6024615, “Effect of Biliary Drainage on the Toxicity and Toxicokinetics of Amanita exitialis in Beagles” (Toxins, 2018).
*1 amine or outer side, *2 acyl side, *3 side chain or, on linkers, in order; H or OH if unused. Where a SMILES comes first, the peptide text is derived from it. Bridges are numbered along the chain shown (N, C = ends). [ ]: non-standard residue; d: D form. Trp(2-yl) = O=C([C@H](Cc1c([*:3])[nH]c2ccccc12)N[*:1])[*:2]; Leu(4R-OH,5-OH) = C[C@](O)(CO)C[C@H](N)C(=O)O; dAsp(3S-OH) = N[C@@H](C(=O)O)[C@H](O)C(=O)O; cisHyp = O=C(O)[C@@H]1C[C@H](O)CN1

Columns and labels:
[1] = Peptide toxins in the urine of beagles with biliary drainage; type: in vivo, beagle dogs; conditions: for Total (accumulated) amount excreted in urine / percentage of total urine excretion, Total: 0–4 days
Experimental: (§1) The study was approved by National Institute of Occupational Health and Poison Control review board for animal experiments. Twenty-four male beagles (age, 8–10 months; weight, 10 ± 1 kg) were obtained from Beijing Institute of Xieerxin Biology Resource (Beijing, China). They were randomly divided into four groups of six animals each: control, biliary drainage, and 20 and 60 mg/kg with biliary drainage groups. The biliary drainage operation was conducted in all groups barring the control group. The dogs were dressed in homemade underwear, coats, and Elizabeth circles for a week to ensure pre-experimental acclimatization (Figure S8a–c). After determining the baseline values for biochemical indicators, the dogs were fasted for 24 h but received water ad libitum. They were anesthetized by intravenous administration of pentobarbital sodium (3%, 1 mL/kg) during the surgery. A temperature of 38–39 °C was maintained with a warming mat. After skin preservation and sterilization, the abdominal cavity was opened through the central abdomen. The abdomen was explored and blunt dissection of the common bile duct was performed (Figure S8d). The common bile duct and its branches were ligated from the intestinal side. A 7.0-Fr drainage catheter (COOK, Bloomington, IN, USA) was percutaneously inserted into the gallbladder, and a medical drainage bag was connected to the drainage catheter coming out of the abdominal cavity. Each opened layer, including the peritoneum, abdominal wall muscle, and skin, was closed with suture. The operative incision was protected with sterile gauze and a bandage, and the dogs were dressed in homemade underwear, coats, and Elizabeth circles. The drainage bag was placed in the pocket of the coat (Figure S8e). After the anesthetic wore off, the dogs were placed in cages, and food and water were provided ad libitum. The operative incision was sterilized with iodophor twice a day until stitches were removed six days after surgery. The drainage bag was replaced every day. On the eighth day after surgery, the 20 and 60 mg/kg with biliary drainage groups were orally administered a lyophilized powder of Amanita exitialis in starch capsules. In control and bile drainage group, the beagle dogs were fed with empty capsules. Immediately after dosing, the animals were placed in their cages, and food and water were provided ad libitum. Dogs were sacrificed with an overdose of sodium pentobarbital at the end of the experiment. All procedures were performed according to the ethical standards of the National Institutes of Health Guide for Animal Welfare and approved by the Institutional Animal Care and Use Committee (EAWE-2017-005).
(§2) Peptide toxins in blood and urine samples were analyzed as described previously. Bile samples from Days 0–1, Days 1–2, Days 2–3, and Days 3–4 were collected and stored in medical drainage bags and the bile volume was recorded. Plasma and urine samples were stored at 2–8 °C until analysis for peptide toxins.
(§3) UPLC and MS/MS parameters were as described in our previous study. The limit of detection and limit of quantitation of each toxin in the bile were 0.03 mg/kg and 0.5 mg/kg, respectively.

[2] = Peptide toxins in the bile of beagles with biliary drainage; type: in vivo, beagle dogs; conditions: for Accumulated amounts excreted in bile / percentage of total bile excretion, Accumulated amounts: 0–4 days
Experimental: as §1, §2
α-Amanitin, β-amanitin, γ-amanitin, and phallacidin were used as the standard reference materials. Aliquots (0.2 mL) of bile samples were transferred into 2-mL polypropylene centrifuge tubes in duplicates. Next, 1 mL of acetonitrile was added to each tube. After vortex-mixing for 1 min, each sample was sonicated for 30 min and centrifuged at 11,200× g for 10 min at 4 °C. The supernatants were loaded on solid-phase extraction columns (Oasis PRiME HLB, 60 mg, 3 cc). The columns were then washed with 3 mL of methanol/ultrapure water (v/v: 5/95). The eluent was evaporated in a stream of nitrogen at room temperature. The dry residue was dissolved in 0.2 mL of ultrapure water and analyzed by UPLC-ESI-MS/MS.
as §3

[3] = 0-1 d, 20 mg/kg with biliary drainage group
[4] = 0-1 d, 60 mg/kg with biliary drainage group
[5] = 0–1 days, 20 mg/kg with biliary drainage group
[6] = 0–1 days, 60 mg/kg with biliary drainage group
[7] = 20 mg/kg with biliary drainage group
[8] = 60 mg/kg with biliary drainage group
[9] = 1-2 d, 20 mg/kg with biliary drainage group
[10] = 1-2 d, 60 mg/kg with biliary drainage group
[11] = 1–2 days, 20 mg/kg with biliary drainage group
[12] = 1–2 days, 60 mg/kg with biliary drainage group
[13] = 2-3 d, 20 mg/kg with biliary drainage group
[14] = 2-3 d, 60 mg/kg with biliary drainage group
[15] = 2–3 days, 20 mg/kg with biliary drainage group
[16] = 2–3 days, 60 mg/kg with biliary drainage group
[17] = 3-4d, 20 mg/kg with biliary drainage group
[18] = 3-4d, 60 mg/kg with biliary drainage group
[19] = 3–4 days, 20 mg/kg with biliary drainage group
[20] = 3–4 days, 60 mg/kg with biliary drainage group

CC(C)[C@@H]1NC(=O)[C@H](C[C@@](C)(O)CO)NC(=O)[C@@H]2Cc3c([nH]c4ccccc34)SC[C@H](NC(=O)[C@@H]([C@H](O)C(=O)O)NC1=O)C(=O)N1C[C@@H](O)C[C@H]1C(=O)N[C@@H](C)C(=O)N2 [phallacidin] (cyclo(A[Trp(2-yl)][Leu(4R-OH,5-OH)]V[dAsp(3S-OH)]C[cisHyp]); thioether 2-6)
detection rate of peptide toxins in urine [1, 3]: 100%
detection rate of peptide toxins in urine [1, 4]: 100%
daily amount excreted in urine [1, 5]: 0.0012 mg
percentage of total urine excretion excreted daily ([1]; 0–1 days, 20 mg/kg with biliary drainage group, 20 mg/kg): more than 90%
percentage of total urine excretion excreted daily ([1]; 0–1 days, 20 mg/kg with biliary drainage group, listed as Phallacidin, 20 mg/kg): 92.2%
daily amount excreted in urine [1, 6]: 0.0017 mg
percentage of total urine excretion excreted daily [1, 6]: 70.5%
Total (accumulated) amount excreted in urine [1, 7]: 0.0014 mg
percentage of total urine excretion, Total [1, 7]: 100%
Total (accumulated) amount excreted in urine [1, 8]: 0.0025 mg
percentage of total urine excretion, Total [1, 8]: 100%
time within which toxin was detected in urine [1, 7]: two
time within which toxin was detected in urine [1, 8]: three
detection rate of peptide toxins in urine [1, 9]: 83%
detection rate of peptide toxins in urine [1, 10]: 100%
daily amount excreted in urine [1, 11]: 0.0001 mg
percentage of total urine excretion excreted daily [1, 11]: 7.8%
daily amount excreted in urine [1, 12]: 0.0005 mg
percentage of total urine excretion excreted daily [1, 12]: 22.1%
detection rate of peptide toxins in urine [1, 13]: 0%
toxin content in urine ([1]; 2-3d, 20 mg/kg with biliary drainage group, mean ± SD): 0 µg/L
detection rate of peptide toxins in urine [1, 14]: 50%
daily amount excreted in urine [1, 15]: 0(0%) mg
percentage of total urine excretion excreted daily [1, 15]: 0(0%)
daily amount excreted in urine [1, 16]: 0.0002 mg
percentage of total urine excretion excreted daily [1, 16]: 7.5%
detection rate of peptide toxins in urine [1, 17]: 0%
toxin content in urine [1, 17]: 0 µg/L
detection rate of peptide toxins in urine [1, 18]: 0%
toxin content in urine [1, 18]: 0 µg/L
daily amount excreted in urine [1, 19]: 0(0%) mg
percentage of total urine excretion excreted daily [1, 19]: 0(0%)
daily amount excreted in urine [1, 20]: 0(0%) mg
percentage of total urine excretion excreted daily [1, 20]: 0(0%)
share of total urine excretion in the 0–2-day urine ([1]; beagles with biliary drainage, both dose groups): more than 90%
detection rate of peptide toxins in bile [2, 3]: 83%
toxin concentration in bile ([2]; 0-1d, 20 mg/kg with biliary drainage group, mean ± SD): 0 µg/L
detection rate of peptide toxins in bile [2, 4]: 83%
daily amount excreted in bile [2, 5]: 0.00005 mg
percentage of total bile excretion excreted daily [2, 5]: 100%
daily amount excreted in bile [2, 6]: 0.0002 mg
percentage of total bile excretion excreted daily [2, 6]: 81.7%
Accumulated amounts excreted in bile [2, 7]: 0.00005 mg
percentage of total bile excretion, Accumulated amounts [2, 7]: 100%
percentage of total bile excretion, Accumulated amounts [2, 8]: 100%
Accumulated amounts excreted in bile ([2]; 60 mg/kg with biliary drainage group, 60 mg/kg): 0.00024 mg
ratio of peptide toxins in bile to excretion in urine and bile ([2]; 20 mg/kg with biliary drainage group, mean ± SD): less than 10%
ratio of peptide toxins in bile to excretion in urine and bile ([2]; 20 mg/kg with biliary drainage group, mean ± SD, listed as Phallacidin): 4.8 ± 5.7%
ratio of peptide toxins in bile to excretion in urine and bile ([2]; 60 mg/kg with biliary drainage group, mean ± SD): less than 20%
ratio of peptide toxins in bile to excretion in urine and bile ([2]; 60 mg/kg with biliary drainage group, mean ± SD, listed as Phallacidin): 9.4 ± 6.4%
detection rate of peptide toxins in bile [2, 9]: 0%
toxin concentration in bile [2, 9]: 0 µg/L
detection rate of peptide toxins in bile [2, 10]: 75%
daily amount excreted in bile [2, 11]: 0(0%) mg
percentage of total bile excretion excreted daily [2, 11]: 0(0%)
daily amount excreted in bile [2, 12]: 0.00004 mg
percentage of total bile excretion excreted daily [2, 12]: 18.3%
detection rate of peptide toxins in bile [2, 13]: 0%
toxin concentration in bile [2, 13]: 0 µg/L
detection rate of peptide toxins in bile [2, 14]: 0%
toxin concentration in bile [2, 14]: 0 µg/L
daily amount excreted in bile [2, 15]: 0(0%) mg
percentage of total bile excretion excreted daily [2, 15]: 0(0%)
daily amount excreted in bile [2, 16]: 0(0%) mg
percentage of total bile excretion excreted daily [2, 16]: 0(0%)
detection rate of peptide toxins in bile [2, 17]: 0%
toxin concentration in bile [2, 17]: 0 µg/L
detection rate of peptide toxins in bile [2, 18]: 0%
toxin concentration in bile [2, 18]: 0 µg/L
daily amount excreted in bile [2, 19]: 0(0%) mg
percentage of total bile excretion excreted daily [2, 19]: 0(0%)
daily amount excreted in bile [2, 20]: 0(0%) mg
percentage of total bile excretion excreted daily [2, 20]: 0(0%)
